The NIST ThermoML archive (doi:10.1016/j.jct.2015.02.009)

Test: molar heat capacity at saturation pressure
Settings: Vacuum adiabatic calorimetry

O=c1c2ccccc2oc2ccccc12 [9H-xanthen-9-one]
Settings	molar heat capacity [J/K/mol]
146.73 K, Crystal 2	110.54
156.73 K, Crystal 2	117.13
160 K, Crystal 2	119.31
166.81 K, Crystal 2	123.9
176.93 K, Crystal 2	130.77
180 K, Crystal 2	132.89
187.03 K, Crystal 2	137.78
197.16 K, Crystal 2	144.95
200 K, Crystal 2	146.97
207.33 K, Crystal 2	152.23
217.49 K, Crystal 2	159.6
220 K, Crystal 2	161.45
227.64 K, Crystal 2	167.1
237.79 K, Crystal 2	174.59
240 K, Crystal 2	176.23
247 K, Crystal 2	181.5
257.21 K, Crystal 2	189.32
260 K, Crystal 2	191.47
267.43 K, Crystal 2	197.24
271.49 K, Crystal 2	200.45
277.66 K, Crystal 2	205.34
280 K, Crystal 2	207.28
281.58 K, Crystal 2	208.68
285.78 K, Crystal 2	211.94
287.89 K, Crystal 2	213.62
287.93 K, Crystal 2	213.81
290.92 K, Crystal 2	216.28
293.89 K, Crystal 2	218.7
296.84 K, Crystal 2	221.36
298.15 K, Crystal 2	222.59
299.77 K, Crystal 2	224.22
300 K, Crystal 2	224.32
302.68 K, Crystal 2	226.91
304.5 K, Crystal 1	217.42
304.5 K, Crystal 2	228.82
308.54 K, Crystal 1	220.52
314.52 K, Crystal 1	224.74
319.05 K, Crystal 1	228.22
320 K, Crystal 1	228.78
329.4 K, Crystal 1	234.88
339.75 K, Crystal 1	241.96
340 K, Crystal 1	242.13
350.05 K, Crystal 1	248.91
360 K, Crystal 1	255.59
360.25 K, Crystal 1	255.74
370.5 K, Crystal 1	262.7
380 K, Crystal 1	269.01
380.94 K, Crystal 1	269.61
391.39 K, Crystal 1	276.39
400 K, Crystal 1	281.96
401.81 K, Crystal 1	283.12
403.54 K, Crystal 1	284.25
411.03 K, Crystal 1	289
412.19 K, Crystal 1	289.73
416.69 K, Crystal 1	292.58
419.61 K, Crystal 1	294.44
420 K, Crystal 1	294.67
422.49 K, Crystal 1	296.32
426.25 K, Crystal 1	298.77
426.89 K, Crystal 1	299.05
428.37 K, Crystal 1	300.06
432.6 K, Crystal 1	302.78
434.54 K, Crystal 1	304.24
436.39 K, Crystal 1	305.61
436.87 K, Crystal 1	305.89
437 K, Crystal 1	305.66
438.34 K, Crystal 1	306.66
440 K, Crystal 1	307.81
441.53 K, Crystal 1	308.59
444.48 K, Crystal 1	310.76
448.8 K, Crystal 1	313.35
448.8 K, Liquid	352.72
456.71 K, Liquid	355.95
456.82 K, Liquid	356.07
456.9 K, Liquid	356.08
460 K, Liquid	357.33
465.07 K, Liquid	359.58
465.9 K, Liquid	359.81
476.6 K, Liquid	364.34
480 K, Liquid	365.74
488.56 K, Liquid	369.25
497.53 K, Liquid	372.95
500 K, Liquid	374.07
500.95 K, Liquid	374.47
512.38 K, Liquid	379.19
520 K, Liquid	382.26
521.08 K, Liquid	382.68
